Values after ≈ are worked out from the molar mass of the structure shown. Counter-ions that a name gives are not always drawn. Like-named read-outs stand apart in the source and are kept apart here.
What was measured:
[1] = Test for solubility according to pH; assay type: physicochemical; settings: 37 °C, thermodynamic from solid, 37° C. 2 hours
[2] = target: T1, hURAT1 (Homo sapiens, UniProt Q96S37); assay: Test for inhibiting urate reuptake activity via hURAT1 (uric acid transport assay in hURAT1-overexpressed HEK293 cell line); assay type: cell-based; settings: hURAT1-overexpressed HEK293 cells, [14C]-uric acid uptake, 100 μM uric acid; read-out: IC50 (μM) hURAT, level of uric acid reuptake inhibition
T1 construct: expressed in transfected cells; host or cells: HEK293 (human kidney cell line), transient transfection with Fugene6
T1 sequence (Q96S37 1-553): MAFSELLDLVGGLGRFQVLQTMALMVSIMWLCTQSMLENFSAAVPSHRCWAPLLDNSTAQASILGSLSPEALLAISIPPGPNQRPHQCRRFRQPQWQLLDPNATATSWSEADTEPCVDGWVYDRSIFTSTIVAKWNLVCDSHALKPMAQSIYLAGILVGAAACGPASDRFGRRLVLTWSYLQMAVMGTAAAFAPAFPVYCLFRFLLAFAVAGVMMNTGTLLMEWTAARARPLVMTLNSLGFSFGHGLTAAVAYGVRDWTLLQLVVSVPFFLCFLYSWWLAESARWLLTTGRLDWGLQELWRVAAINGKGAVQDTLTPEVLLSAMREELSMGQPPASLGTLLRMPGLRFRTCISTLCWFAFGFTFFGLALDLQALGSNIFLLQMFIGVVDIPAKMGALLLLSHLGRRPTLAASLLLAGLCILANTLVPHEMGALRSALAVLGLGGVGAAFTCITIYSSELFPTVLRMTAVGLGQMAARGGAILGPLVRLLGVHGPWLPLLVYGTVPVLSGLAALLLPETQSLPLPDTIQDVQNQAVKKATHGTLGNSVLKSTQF
Experimental: Test for Inhibiting Urate Reuptake Activity Via hURAT1
[hURAT1 Overexpression by Transient Transfection in Human Kidney Cell Line]
A human kidney cell line, HEK293 was incubated by using OptiMEM medium in 100 mm dish at (3*10^6 cells) for 24 hours. In order for the expression of hURAT1, a transfection mixture solution (Fugene6 18 μl:hURAT1 DNA 6 μg=3:1, in 600 μl OptiMEM medium/dish) was prepared and kept for 15 minutes at room temperature. To each dish, 600 μl of the mixture solution was injected and then incubated in 37[…] cell incubator for 24 hours. The hURAT1-overexpressed HEK293 cell line was trypsinized and cells were harvested. Cells were resuspended in medium and seeded at 6*10^5 cells/well and incubated for 24 hours in 24-well plate which was surface-coated with Poly-D-Lysine.
[Uric Acid Transport Assay in hURAT1-Overexpressed HEK293 Cell Line]
For each concentration, the stock sample solution was diluted in PBS (1 μl in 800 μl of PBS) as 1.25 fold concentrated working sample solution to obtain final concentrations of 0.01, 0.1, 1 and 10 μM. The hURAT1-overexpressed cell line was washed with 1 ml of PBS. After washing, PBS was discarded and the sample solution was diluted by 1.25 fold with PBS. Preincubation of cells with 200 μl/well of sample solution made above was conducted for 30 minutes in 37[…] cell incubator. After the incubation, each well was treated with 50 μl of PBS containing 500 μM [^14C]-uric acid (final 100 μM of uric acid/well). Cells were incubated for 2 minutes. The cells were washed twice with 1 ml of PBS.
To measure the uric acid uptake, each well was treated with 150 μl of M-per buffer (PIERCE) and kept in 37° C. cell incubator for 30 minutes to make cell lysates. 150 μl of cell lysates was transferred into test tube and 4 ml of scintillation cocktail was added. CPM value of [^14C]-uric acid absorbed into cells was detected using liquid scintillation counter. IC50 for the inhibition of uric acid uptake by each test sample was analyzed by computational numerical processing.

[3] = target: CYP2C9 (Homo sapiens, UniProt P11712); assay: biochemical
[4] = pH 1.2, simulated gastric fluid, first solution pH about 1.2, 2 mg/mL, read-out: Solubility (μg/mL) pH 1.2
[5] = pH 6.8, aqueous buffer, second solution pH about 6.8, 2 mg/mL, read-out: Solubility (μg/mL) pH 6.8

Sequence of CYP2C9 (P11712 whole entry): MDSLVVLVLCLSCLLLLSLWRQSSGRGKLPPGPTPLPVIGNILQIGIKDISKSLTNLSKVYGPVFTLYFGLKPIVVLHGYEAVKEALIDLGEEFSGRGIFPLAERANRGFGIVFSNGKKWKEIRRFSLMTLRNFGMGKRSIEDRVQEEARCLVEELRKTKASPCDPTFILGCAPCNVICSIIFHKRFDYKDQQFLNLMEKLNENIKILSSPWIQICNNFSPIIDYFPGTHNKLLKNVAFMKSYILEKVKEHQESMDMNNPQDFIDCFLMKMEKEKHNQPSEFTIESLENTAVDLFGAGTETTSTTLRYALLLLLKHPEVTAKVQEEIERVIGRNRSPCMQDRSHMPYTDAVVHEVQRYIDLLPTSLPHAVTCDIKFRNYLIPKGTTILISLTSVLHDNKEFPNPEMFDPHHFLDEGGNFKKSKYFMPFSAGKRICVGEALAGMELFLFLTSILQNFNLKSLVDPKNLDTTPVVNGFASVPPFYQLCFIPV

Compound | solubility at 2 h [1, 4] [µg/mL] | solubility at 2 h [1, 5] [µg/mL] | IC50 [2] [µM] | IC50 [3] [µM]
O=C(c1cc(Br)c(O)c(Br)c1)N1CCOc2ncccc21 [Compound 1, (3,5-dibromo-4-hydroxy-phenyl)-(2,3-dihydro-pyrido[2,3-b][1,4]oxazin-1-yl)-methanone] | 56.1 (≈ 135 µM) | 277 (≈ 669 µM) | 0.079 | 12.1
Br.O=C(c1cc(Cl)c(O)c([N+](=O)[O-])c1)N1CCOc2cnccc21 [Compound 17, (3-chloro-4-hydroxy-5-nitro-phenyl)-(2,3-dihydro-pyrido[3,4-b][1,4]oxazin-1-yl)-methanone bromic acid salt] | 1610 | 1890 | 1 | 
COc1c(Br)cc(C(=O)N2CCOc3ncc(C(F)(F)F)cc32)cc1Br [Compound 22-1, (3,5-dibromo-4-methoxy-phenyl)-(7-trifluoromethyl-2,3-dihydro-pyrido[2,3-b][1,4]oxazin-1-yl)-methanone] |  |  | 0.0888 | 13.4
O=C(c1cc(Br)c(O)c(Br)c1)N1CCOc2ncc(Br)cc21 [Compound 25, (7-bromo-2,3-dihydro-pyrido[2,3-b][1,4]oxazin-1-yl)-(3,5-dibromo-4-hydroxy-phenyl)-methanone] |  |  | 0.0073 | > 20
COc1c(Br)cc(C(=O)N2CCOc3ncc(C)cc32)cc1Br [Compound 27-1, (3,5-dibromo-4-methoxy-phenyl)-(7-methyl-2,3-dihydro-pyrido[2,3-b][1,4]oxazin-1-yl)-methanone] |  |  | 0.036 | > 20
O=C(c1ccc(O)c(Br)c1)N1CCOc2ccncc21 [Compound 38, (3-bromo-4-hydroxy-phenyl)-(2,3-dihydro-pyrido[4,3-b][1,4]oxazin-4-yl)-methanone] |  |  | 0.0964 | > 20
O=C(c1cc(Br)c(O)c(Br)c1)N1CCOc2ncc(-c3ccc(C(F)(F)F)cc3)cc21 [Compound 45, (3,5-dibromo-4-hydroxy-phenyl)-[7-(4-trifluoromethyl-phenyl)-2,3-dihydro-pyrido[2,3-b][1,4]oxazin-1-yl]-methanone] |  |  | 0.0197 | 1.18
O=C(c1cc(Br)c(O)c(Br)c1)N1CCOc2ncc(-c3ccccc3C(F)(F)F)cc21 [Compound 46, (3,5-dibromo-4-hydroxy-phenyl)-[7-(2-trifluoromethyl-phenyl)-2,3-dihydro-pyrido[2,3-b][1,4]oxazin-1-yl]-methanone] |  |  | 0.0047 | 1.09
COc1c(Br)cc(C(=O)N2CCOc3ncc(C#N)cc32)cc1Br [Compound 47-1, 1-(3,5-dibromo-4-methoxy-benzoyl)-2,3-dihydro-1H-pyrido[2,3-b][1,4]oxazin-7-carbonitrile] |  |  | 0.516 | > 20
COc1c(Br)cc(C(=O)N2CCOc3ncc(-c4cccc(N(C)C)c4)cc32)cc1Br [Compound 48, (3,5-dibromo-4-methoxy-phenyl)-[7-(3-dimethylamino-phenyl)-2,3-dihydro-pyrido[2,3-b][1,4]oxazin-1-yl]-methanone] |  |  | 0.0933 | 1.68
COc1c(Br)cc(C(=O)N2CCOc3ncc(-c4cccc([N+](=O)[O-])c4)cc32)cc1Br [Compound 49, (3,5-dibromo-4-methoxy-phenyl)-[7-(3-nitro-phenyl)-2,3-dihydro-pyrido[2,3-b][1,4]oxazin-1-yl]-methanone] |  |  | 0.311 | > 20
O=C(c1cc(Br)c(O)c(Br)c1)N1CCOc2ncc(-c3cccc([N+](=O)[O-])c3)cc21 [Compound 50, (3,5-dibromo-4-hydroxy-phenyl)-[7-(3-nitro-phenyl)-2,3-dihydro-pyrido[2,3-b][1,4]oxazin-1-yl]-methanone] |  |  | 0.0044 | 1.26
Oc1c(Br)cc(C(=S)N2CCOc3ccncc32)cc1Br [Compound 51, (3,5-dibromo-4-hydroxy-phenyl)-(2,3-dihydro-pyrido[4,3-b][1,4]oxazin-4-yl)-methanethione] |  |  | 0.0115 | 8.8
O=C(c1cc(Br)c(O)c(Br)c1)N1CCOc2ncc(-c3cccnc3)cc21 [Compound 52, (3,5-dibromo-4-hydroxy-phenyl)-(7-pyridin-3-yl-2,3-dihydro-pyrido[2,3-b][1,4]oxazin-1-yl]-methanone] |  |  | 0.0103 | > 20
O=C(c1cc(Br)c(O)c(Br)c1)N1CCOc2ncc(-c3ccoc3)cc21 [Compound 53, (3,5-dibromo-4-hydroxy-phenyl)-(7-furan-3-yl-2,3-dihydro-pyrido[2,3-b][1,4]oxazin-1-yl]-methanone] |  |  | 0.0562 | 10.3
O=C(c1cc(Br)c(O)c(Br)c1)N1CCOc2c1cnc1ccccc21 [Compound 55, (3,5-dibromo-4-hydroxy-phenyl)-(2,3-dihydro-4-oxa-1,9-diaza-phenanthren-1-yl)-methanone] |  |  | 0.0488 | 8.87
COc1c(Br)cc(C(=O)N2CCOc3nc(C)ccc32)cc1Br [Compound 58, (3,5-dibromo-4-methoxy-phenyl)-(6-methyl-2,3-dihydro-pyrido[2,3-b][1,4]oxazin-1-yl)-methanone] |  |  | 0.742 | > 20
O=C(c1cc(Br)c(O)c(Br)c1)N1CCOc2ncc(-c3cncc4ccccc34)cc21 [Compound 61, (3,5-dibromo-4-hydroxy-phenyl)-(7-isoquinolin-4-yl-2,3-dihydro-pyrido[2,3-b][1,4]oxazin-1-yl)-methanone] |  |  | 0.002 | 1.23
O=C(c1cc(Br)c(O)c(Br)c1)N1CCOc2ncc(-c3cccc(C(F)(F)F)c3)cc21 [Compound 63, (3,5-dibromo-4-hydroxy-phenyl)-[7-(3-trifluoromethyl-phenyl)-2,3-dihydro-pyrido[2,3-b][1,4]oxazin-1-yl]-methanone] |  |  | 0.0123 | 1.11
N#Cc1ccc(-c2cnc3c(c2)N(C(=O)c2cc(Br)c(O)c(Br)c2)CCO3)cc1 [Compound 65, 4-[1-(3,5-dibromo-4-hydroxy-benzoyl)-2,3-dihydro-1H-pyrido[2,3-b][1,4]oxazin-7-yl]-benzonitrile] |  |  | 0.003 | 12.4
O=C(c1cc(Br)c(O)c(Br)c1)N1CCOc2ncc(-c3ccc(OC(F)(F)F)cc3)cc21 [Compound 66, (3,5-dibromo-4-hydroxy-phenyl)-[7-(4-trifluoromethoxy-phenyl)-2,3-dihydro-pyrido[2,3-b][1,4]oxazin-1-yl]-methanone] |  |  | 0.0358 | 1.34
COc1cncc(-c2cnc3c(c2)N(C(=O)c2cc(Br)c(O)c(Br)c2)CCO3)c1 [Compound 68, (3,5-dibromo-4-hydroxy-phenyl)-[7-(5-methoxy-pyridin-3-yl)-2,3-dihydro-pyrido[2,3-b][1,4]oxazin-1-yl]-methanone] |  |  | 0.0232 | 1.39
Cc1cnc2c(c1)N(C(=O)c1ccc(O)c(C(F)(F)F)c1)CCO2 [Compound 69, (4-hydroxy-3-trifluoromethyl-phenyl)-(7-methyl-2,3-dihydro-pyrido[2,3-b][1,4]oxazin-1-yl)-methanone] |  |  | 0.0331 | > 20
Oc1c(Br)cc(C(=S)N2CCOc3ccncc32)cc1Br [Compound 74, (3,5-dibromo-4-hydroxy-phenyl)-(2,3-dihydro-pyrido[4,3-b][1,4]oxazin-4-yl)-methanethione trifluoroacetic acid salt] |  |  | 0.006 | 16.7
